Where two headings read alike, the source gives them in different places.
Assays:
Type in all cases: cell-based
AR = biological target: T1, AR (Homo sapiens, UniProt P10275); experiment: Degradation of AR in VCaP cells; conditions: VCaP cells; for Dmax: VCaP
T1 construct: Degradation of AR; Cellular potency; host or cells: VCaP cells
T1 sequence (P10275 1-920): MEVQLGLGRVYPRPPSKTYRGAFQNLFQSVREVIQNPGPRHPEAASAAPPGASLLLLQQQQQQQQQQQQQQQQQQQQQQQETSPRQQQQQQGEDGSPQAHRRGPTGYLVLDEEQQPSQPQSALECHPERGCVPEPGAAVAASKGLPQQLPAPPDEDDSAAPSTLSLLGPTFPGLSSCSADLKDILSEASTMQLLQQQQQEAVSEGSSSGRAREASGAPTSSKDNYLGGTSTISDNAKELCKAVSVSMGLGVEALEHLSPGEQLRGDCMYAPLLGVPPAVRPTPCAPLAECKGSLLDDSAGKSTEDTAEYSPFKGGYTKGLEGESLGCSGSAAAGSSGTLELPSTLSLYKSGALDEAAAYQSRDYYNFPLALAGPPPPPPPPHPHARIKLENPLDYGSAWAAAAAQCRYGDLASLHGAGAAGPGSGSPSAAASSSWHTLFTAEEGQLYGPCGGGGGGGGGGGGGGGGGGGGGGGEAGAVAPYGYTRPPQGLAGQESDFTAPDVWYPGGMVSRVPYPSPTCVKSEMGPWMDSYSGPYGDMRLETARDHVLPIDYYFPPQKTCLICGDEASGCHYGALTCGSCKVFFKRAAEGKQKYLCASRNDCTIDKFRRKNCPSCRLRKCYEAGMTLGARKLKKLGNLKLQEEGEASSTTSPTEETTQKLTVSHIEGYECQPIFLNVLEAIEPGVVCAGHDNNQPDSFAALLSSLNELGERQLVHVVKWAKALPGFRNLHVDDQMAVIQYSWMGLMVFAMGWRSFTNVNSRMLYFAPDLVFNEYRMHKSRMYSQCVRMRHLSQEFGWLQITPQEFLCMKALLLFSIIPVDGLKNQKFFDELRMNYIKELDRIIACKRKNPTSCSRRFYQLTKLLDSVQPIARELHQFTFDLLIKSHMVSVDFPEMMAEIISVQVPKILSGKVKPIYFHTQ
Method: (§1) Biological Assays. LNCaP and VCaP cells used were purchased from American Type Culture Collection (ATCC). LNCaP were grown in RPMI 1640 (Invitrogen) and VCaP cells were grown in DMEM with Glutamax (Invitrogen). All of the cells were supplemented with 10% fetal bovine serum (Invitrogen) at 37° C. in a humidified 5% CO2 incubator.

LNCaP cells = experiment: Cellular potency (IC50) in LNCaP cells
Method: as §1

VCaP cells = experiment: Cellular potency (IC50) in VCaP cells
Method: as §1

| Structure (SMILES) | DC50 (AR) [nM] | Degradation of AR in VCaP cells Dmax (AR) | IC50 (LNCaP cells) [nM] | IC50 (VCaP cells) [nM] | Dmax (AR) [%] | IC50 (LNCaP cells; Homo sapiens, LNCaP) [nM] | IC50 (VCaP cells; Homo sapiens, VCaP) [nM] |
| --- | --- | --- | --- | --- | --- | --- | --- |
| C[C@H]1CC2(CCN(c3ccc(CN4CCC(C5CN(c6ccc7c(c6)C(=O)N(C6CCC(=O)NC6=O)C7=O)C5)CC4)c(F)c3)CC2)CN1c1ccc(C#N)c(Cl)c1 (stereo partly shown) [compound 41] | < 10 | A (A = >90%) | < 100 | < 100 |  |  |  |
| C[C@H]1CC2(CCN(c3ccc(OC4CN(C5CCN(c6ccc7c(c6)C(=O)N(C6CCC(=O)NC6=O)C7=O)CC5)C4)nc3)CC2)CN1c1ccc(C#N)c(Cl)c1 (stereo partly shown) [compound 72] | < 100 |  |  |  | 50 to 70 | < 1000 | < 1000 |
| C[C@H]1CC2(CCN(c3ccc(CN4CCN(C5CCN(c6ccc7c(c6)C(=O)N(C6CCC(=O)NC6=O)C7=O)CC5)CC4)nc3)CC2)CN1c1ccc(C#N)c(Cl)c1 (stereo partly shown) [compound 182] | < 1 |  |  |  |  | < 10 | < 100 |
| C[C@H]1CC2(CCN(c3ccc(CN4CCC(N5CCN(c6cc7c(cc6F)C(=O)N(C6CCC(=O)NC6=O)C7=O)CC5)CC4)cn3)CC2)CN1c1ccc(C#N)c(Cl)c1 (stereo partly shown) [compound 168] | < 10 |  |  |  |  | < 10 | < 10 |
| C[C@H]1CC2(CCN(c3ccc(N4CCN(CC5CN(c6ccc7c(c6)C(=O)N(C6CCC(=O)NC6=O)C7=O)C5)CC4)cn3)CC2)CN1c1ccc(C#N)c(Cl)c1 (stereo partly shown) [compound 31] | < 1 |  |  |  | > 90 | < 10 | < 10 |
| C[C@H]1CC2(CCN(c3ccc(C4CCN(CC5CN(c6ccc7c(c6)C(=O)N(C6CCC(=O)NC6=O)C7=O)C5)CC4)cn3)CC2)CN1c1ccc(C#N)c(Cl)c1 (stereo partly shown) [compound 43] | < 1 |  |  |  | > 90 | < 10 | < 10 |
| C=C1CCC(N2C(=O)c3ccc(N4CC(N5CCC(Cc6ccc(N7CCC8(CC7)C[C@H](C)N(c7ccc(C#N)c(Cl)c7)C8)cc6)CC5)C4)cc3C2=O)C(=O)N1 (stereo partly shown) [compound 23] |  |  |  |  | > 90 | < 10 | < 10 |
| C[C@H]1CC2(CCN(c3ccc(N4CCC(OC5CN(c6ccc7c(c6)C(=O)N(C6CCC(=O)NC6=O)C7=O)C5)CC4)cc3)CC2)CN1c1ccc(C#N)c(Cl)c1 (stereo partly shown) [compound 90] | < 1 |  |  |  | > 90 | < 10 | < 10 |
| C[C@H]1CC2(CCN(c3ccc(C(=O)N4CCC(N5CCOc6cc7c(cc6C5)C(=O)N(C5CCC(=O)NC5=O)C7=O)CC4)cc3)CC2)CN1c1ccc(C#N)c(Cl)c1 (stereo partly shown) [compound 194] | < 10 |  |  |  |  | < 10 | < 100 |
| C[C@H]1CC2(CCN(c3ccc(CN4CCN(C5CN(c6ccc7c(c6)C(=O)N(C6CCC(=O)NC6=O)C7=O)C5)CC4)c(F)c3)CC2)CN1c1ccc(C#N)c(Cl)c1 (stereo partly shown) [compound 8] | < 10 |  |  |  | 70 to 90 | < 100 | < 100 |
| C=C1CCC(N2C(=O)c3ccc(N4CC(C5CCN(Cc6ccc(N7CCC8(CC7)C[C@H](C)N(c7ccc(C#N)c(Cl)c7)C8)cc6)CC5)C4)cc3C2=O)C(=O)N1 (stereo partly shown) [compound 16] |  |  |  |  | > 90 | < 10 | < 10 |
| C[C@H]1CC2(CCN(c3ccc(OC4CCN(C5CN(c6ccc7c(c6)C(=O)N(C6CCC(=O)NC6=O)C7=O)C5)CC4)cn3)CC2)CN1c1ccc(C#N)c(Cl)c1 (stereo partly drawn) [compound 61, 2-chloro-4-((3S)-8-(5-((1-(1-(2-(2,6-dioxopiperidin-3-yl)-1,3-dioxoisoindolin-5-yl)azetidin-3-yl)piperidin-4-yl)oxy)pyridin-2-yl)-3-methyl-2,8-diazaspiro-[4.5]decan-2-yl)benzonitrile] |  |  |  |  | > 90 | < 10 | < 10 |
| C=C1CCC(N2C(=O)c3ccc(N4CCC(N5CCN(Cc6ccc(N7CCC8(CC7)C[C@H](C)N(c7ccc(C#N)c(Cl)c7)C8)cc6)CC5)CC4)cc3C2=O)C(=O)N1 (stereo partly shown) [compound 18] |  |  |  |  | > 90 | < 10 | < 10 |
| C[C@H]1CC2(CCN(c3ccc(N4CCC(CN5CCN(c6ccc7c(c6)C(=O)N(C6CCC(=O)NC6=O)C7=O)CC5)CC4)nn3)CC2)CN1c1ccc(C#N)c(Cl)c1 (stereo partly shown) [compound 55] | < 10 |  |  |  | > 90 | < 100 | < 100 |
| C[C@H]1CC2(CCN(c3ccc(S(=O)(=O)C4CCN(CC5CCN(c6ccc7c(c6)C(=O)N(C6CCC(=O)NC6=O)C7=O)CC5)CC4)cc3)CC2)CN1c1ccc(C#N)c(Cl)c1 (stereo partly shown) [compound 162] | < 1 |  |  |  |  | < 10 | < 10 |
| C[C@H]1CC2(CCN(c3ccc(N4CCN(C5CN(c6ccc7c(c6)C(=O)N(C6CCC(=O)NC6=O)C7=O)C5)CC4)cc3)CC2)CN1c1ccc(C#N)c(Cl)c1 (stereo partly shown) [compound 27] | < 1 |  |  |  | > 90 | < 10 | < 10 |
| C[C@H]1CC2(CCN(c3ccc(N4CCN(CC5CN(c6ccc7c(c6)C(=O)N(C6CCC(=O)NC6=O)C7=O)C5)CC4)nc3)CC2)CN1c1ccc(C#N)c(Cl)c1 (stereo partly shown) [compound 34] | < 1 |  |  |  | > 90 | < 10 | < 10 |
| C[C@H]1CC2(CCN(c3ccc(CN4CCN(C5CN(c6cc7c(cc6F)C(=O)N(C6CCC(=O)NC6=O)C7=O)C5)CC4)nn3)CC2)CN1c1ccc(C#N)c(Cl)c1 (stereo partly shown) [compound 174] | < 1 |  |  |  |  | < 10 | < 10 |
| C[C@H]1CC2(CCN(c3ccc(OC4CCN(C5CN(c6ccc7c(c6)C(=O)N(C6CCC(=O)NC6=O)C7=O)C5)CC4)cc3)CC2)CN1c1ccc(C#N)c(Cl)c1 (stereo partly shown) [compound 57] | < 1 |  |  |  | > 90 | < 10 | < 10 |
| C[C@H]1CC2(CCN(c3ccc(CN4CCC(C5CCN(c6ccc7c(c6)C(=O)N(C6CCC(=O)NC6=O)C7=O)CC5)CC4)nc3)CC2)CN1c1ccc(C#N)c(Cl)c1 (stereo partly shown) [compound 181] | < 1 |  |  |  |  | < 10 | < 100 |
| C[C@H]1CC2(CCN(c3ccc(CN4CCN(C5CN(c6ccc7c(c6)C(=O)N(C6CCC(=O)NC6=O)C7=O)C5)CC4)cc3)CC2)CN1c1ccc(C#N)c(Cl)c1 (stereo partly shown) [compound 6] | < 1 |  | < 10 | < 10 |  |  |  |
| C[C@H]1CC2(CCN(c3ccc(CN4CCN(C5CN(c6ccc7c(c6)C(=O)N(C6CCC(=O)NC6=O)C7=O)C5)CC4)nn3)CC2)CN1c1ccc(C#N)c(Cl)c1 (stereo partly shown) [compound 173] | < 1 |  |  |  |  | < 10 | < 100 |
| C=C1CCC(N2C(=O)c3ccc(N4CCC(N5CCC(Cc6ccc(N7CCC8(CC7)C[C@H](C)N(c7ccc(C#N)c(Cl)c7)C8)cc6)CC5)CC4)cc3C2=O)C(=O)N1 (stereo partly shown) [compound 24] |  |  |  |  | > 90 | < 10 | < 10 |
| C[C@H]1CC2(CCN(c3ccc(N4CCC(CN5CCN(c6ccc7c(c6)C(=O)N(C6CCC(=O)NC6=O)C7=O)CC5)CC4)nc3)CC2)CN1c1ccc(C#N)c(Cl)c1 (stereo partly shown) [compound 53] | < 10 |  |  |  | > 90 | < 100 | < 100 |
| C[C@H]1CC2(CCN(c3cnc(N4CCN(CC5CN(c6ccc7c(c6)C(=O)N(C6CCC(=O)NC6=O)C7=O)C5)CC4)cn3)CC2)CN1c1ccc(C#N)c(Cl)c1 (stereo partly shown) [compound 49] | < 1 |  |  |  | > 90 | < 10 | < 10 |
| C[C@H]1CC2(CCN(c3ccc(OC4CN(C5CCN(c6ccc7c(c6)C(=O)N(C6CCC(=O)NC6=O)C7=O)CC5)C4)cn3)CC2)CN1c1ccc(C#N)c(Cl)c1 (stereo partly shown) [compound 70] | < 100 |  |  |  | 50 to 70 | < 1000 | < 1000 |
| C[C@H]1CC2(CCN(c3ccc(N4CCC(CN5Cc6cc7c(cc6C5)C(=O)N(C5CCC(=O)NC5=O)C7=O)CC4)nn3)CC2)CN1c1ccc(C#N)c(Cl)c1 (stereo partly shown) [compound 56] | < 10 |  |  |  | > 90 | < 100 | < 100 |
| C[C@H]1CC2(CCN(c3ccc(N4CCC(N(C)C5CN(c6ccc7c(c6)C(=O)N(C6CCC(=O)NC6=O)C7=O)C5)CC4)nc3)CC2)CN1c1ccc(C#N)c(Cl)c1 (stereo partly shown) [compound 124] | < 10 |  |  |  | 70 to 90 | < 100 | < 100 |
| C[C@H]1CC2(CCN(c3ccc(CC4CCN(CC5CCN(c6ccc7c(c6)C(=O)N(C6CCC(=O)NC6=O)C7=O)CC5)CC4)cc3)CC2)CN1c1ccc(C#N)c(Cl)c1 (stereo partly shown) [compound 26] | < 1 |  |  |  | > 90 | < 10 | < 10 |
| C[C@H]1CC2(CCN(c3ccc(CN4CC(N5CCN(c6ccc7c(c6)C(=O)N(C6CCC(=O)NC6=O)C7=O)CC5)C4)cn3)CC2)CN1c1ccc(C#N)c(Cl)c1 (stereo partly shown) [compound 204] | < 1 |  |  |  |  | < 10 | < 10 |

From US20240190874A1, “SMALL MOLECULE DEGRADERS OF ANDROGEN RECEPTOR” (THE REGENTS OF THE UNIVERSITY OF MICHIGAN, priority 2021, published 2024)
